Earlier results as cited in patent US20130224131A1, “4-AMIDINO BENZYLAMINES FOR COSMETIC AND/OR DERMATOLOGICAL USE” (DSM IP ASSETS B.V., priority 2007, published 2013).

Target: urokinase (Homo sapiens, UniProt P00749)
Details: qualitative statement, described in WO 01/96286

Row | Compound | urokinase-inhibiting activity
1 | N=C(N)c1ccc(CNC(=O)CNC(=O)[C@@H](CO)NS(=O)(=O)Cc2ccccc2)cc1 [benzylsulfonyl-D-Ser-Gly-4-amidino-benzylamide] | potent and highly specific urokinase-inhibiting activity
2 | N=C(N)c1ccc(CNC(=O)[C@H](CCCCN)NC(=O)[C@@H](CO)NS(=O)(=O)Cc2ccccc2)cc1 [benzylsulfonyl-D-Ser-Lys-(4-amidino-benzylamide)] | potent and highly specific urokinase-inhibiting activity
3 | N=C(N)c1ccc(CNC(=O)C(CCc2ccccc2)NC(=O)[C@@H](CO)NS(=O)(=O)Cc2ccccc2)cc1 (stereo partly drawn) [benzylsulfonyl-D-Ser-homoPhe-(4-amidino-benzylamide)] | potent and highly specific urokinase-inhibiting activity
